Experimental findings from US12391825B2, “Thermoplastic polymer composition for micro 3D printing and uses thereof” (priority 2020, dated 2025) are described below.

For this experiment, the system named is cardiac tissues. The following applies: compared with cardiac tissue without compound (baseline).

Procedure: Human iPSC cardiomyocytes (CMs) were differentiated from hiPSC line BJ1D by using monolayer differentiation protocols (Lian, et al. 2013; Yang, et al. 2008). The disassociation of cardiomyocytes into single cells was performed at day 21 of stem cell differentiation, using previous methods (Yang, et al. 2008). The disassociated cells and cardiac fibroblast (Lonza, NHCF-V) were mixed to reach a cell number ratio of 10:1. The resultant cells were remixed in a collagen hydrogel at a cell number of 5.5×10^7 cells/mL. […]
Cardiac cultured in a multiwell plate was placed in a chamber (37° C., 5% CO2) of fluorescent microscope (Olympus Corporation). ⅓rd of the media was extracted from one well of the multiwell-plate device. […] After 10-15 min, videos in the green and red channel were recorded. The force and Ca^2+ transients were measured under electrical stimulation at 1 Hz. […] Ca^2+ transients were recorded under fluorescent microscope using a green-light channel (λex490 nm/λem525 nm). The ratio of peak fluorescence to baseline fluorescence intensity was measured the relative Ca^2+ change in the tissues by Image J software (NIH) as described previously (Zhao, et al. 2019). […]
With built-in sensors and electrodes, the contractile force of tissues can be measured in situ. […]

Consider `CCN(CC)CC(=O)Nc1c(C)cccc1C` [lidocaine], for which the “electrical excitability of a cardiac tissue” value was “inhibited”.
